The source of these data is patent publication US20220175760A1, “PHARMACEUTICAL FORMULATIONS” (Janssen Pharmaceutica NV, priority 2019, published 2022).

A short description of data set [1]: Crystallisation inhibition: XRPD of the precipitate from a supersaturated solution in FaSSIF + 1% PVPVA64. The format is physicochemical. Conditions: Compound A monohydrate in NMP (175 mg/mL) added to FaSSIF + 1% PVPVA64, 475.5 μg/mL (DS 16), 37° C., 2 hours, 300 rpm. As for the experimental part: (§1) A 1% solution of PVPVA64 in FaSSIF was prepared by weighing 2.5 g of PVPVA64 in a volumetric flask and dissolving it in 250 mL FaSSIF at 37° C. The complete volume of the volumetric flask was transferred to a suitable Duran bottle. Afterwards, a highly concentrated solution of Compound A monohydrate (obtained according to Example 1) in NMP was prepared (175 mg/mL). At time zero, 679 μL of the highly concentrated Compound A solution (175 mg/mL) was added to the Duran bottle containing 250 mL FaSSIF+1% PVPVA64 (w/v). The added volume Compound A solution was chosen to obtain a theoretical final concentration of 475.5 μg/mL. This concentration results in a suitable degree of supersaturation of Compound A.
A precipitate formed immediately after adding the highly concentrated solution. The mixture was equilibrated at 37° C. for 2 hours while stirring at 300 rpm. After 2 hours, the precipitate was separated from the liquid phase by vacuum filtration. The precipitate was then analyzed with Powder X-Ray Diffraction to check if the API present in the formed precipitate was present as an amorphous or a crystalline form.
X-ray powder diffraction (XRPD) analysis was carried out on a PANalytical (Philips) X'PertPRO MPD diffractometer. The instrument is equipped with a Cu LFF X-ray tube. The compound was spread on a zero-background sample holder

Data set [2] can be described thus: Solubility of Compound A in FaSSIF. The format is physicochemical. Particulars: 37 °C. As for the experimental part:
as §1

Values after ≈ are worked out from the molar mass of the structure shown.

`O=C(Nc1ccnc(C(F)(F)F)c1)c1cnn(-c2cccc3c(=O)[nH]ccc23)c1C(F)(F)F` [Compound A, 1-(1-oxo-1,2-dihydroisoquinolin-5-yl)-5-(trifluoromethyl)-N-(2-(trifluoromethyl)pyridin-4-yl)-1H-pyrazole-4-carboxamide]: the “Form of the precipitate (amorphous or crystalline) by XRPD” value in data set [1] is reported as “amorphous precipitate”. This compound also yielded a solubility in data set [2] of 29.7 µg/mL (≈ 63.6 µM).
